{"source": "patent US5108916A", "about": "“Process for stereoselectively hydrolyzing, transesterifying or esterifying with immobilized isozyme of lipase from Candida rugosa” (priority 1989, dated 1992)", "key": {"CSC-2": {"tested_on": "CSC-2", "assay": "Effect of additives and solvents on hydrolysis of ketoprofen monoglyceride by CSC-2", "type": "biochemical, Candida rugosa", "conditions": "for % ee S-acid: 23 hr, 200 ul; for Isolated % ee (S-Acid): extraction procedure I for oleic acid and corn oil, II for the others", "description": "Hydrolysis of ketoprofen-monoglyceride (50mg) was carried out in various DMF-100mM (NH4)H2 PO4 buffer (pH 5.5) mixtures. In each flask a solution of ketoprofen monoglyceride (50mg) in DMF (200ul) was added. DMF was added followed by 100mM (NH4)H2 PO4 buffer. […] After 22 hours, 2%, 5%, and 10% DMF samples were acidified, extracted with CHCl3 (2×10ml) and analyzed. The other samples were analyzed directly as in Example 18. The acid produced decreases with increasing amount of DMF.\nSmall amounts of DMF were added to the reaction mixture to increase the solubility of KPG. In all cases 100mM ammonium phosphate buffer (pH 5.5) was used and 2% (v/v) detergents were added and the total volume was 10ml.\nThe buffer reaction (entry #2 in the table) contained enzyme in buffer (2 ml) and the buffer only (entry #1 in the table) reaction contained no enzyme.\nThe presence of a surfactant like Tween increases the solubility o lipophilic compounds in water. […] Tween 80 was added to make 1% and 2% solution (v/v). Bovine serum albumin (BSA) (10mg) was added to each of two flasks. A solution of 50mg of ketoprofen monoglyceride in 200ul DMF was added to each. After 20 hours at 250 rpm and 35° C. the reaction mixtures were acidified, extracted and analyzed by the usual HPLC procedure as in Example 18.\nVarious surfactants were used at 2% of the reaction volume to determine their effect on the enzymatic reaction involving the conversion of ketoprofen monoglyceride (KPG) to ketoprofen (KP). […] Flasks were covered with parafilm and incubated in a 35° C. water bath at 250 rpm, typically overnight. Reactions were stopped by acidification, extracted with CHCl3 (2×10 ml). The %acid and %ee were determined by the method of Example 18. It is to be noted that Hydrophile-Lipophile Balance (HLB) values have no apparent bearing on the ability of the surfactant to enhance the conversion of KPG to KP.\n75 mg of KPG (in the absence of DMF) was individually weighed into 50 ml Erlenmeyer flasks. […] 9 ml of 100 mM (NH4)H2 PO4, pH 5.5 buffer was added, and the flasks were placed into a 35° C., 250 rpm water bath incubator for 20 hours. The reactions were acidified, extracted with CHCl3 and examined by HPLC as in Example 18. The %ee was determined as per Example 18.\nVarious amounts of oleic acid or its esters were added, and the reactions stopped at the times indicated, acidified, extracted with CHCl3 and analyzed as in Example 18.\nAn experiment was performed as in Example 41, but using 100, 200 and 500 ul of olive oil to determine if it would enhance the rate of conversion of KPG to KP. […] After 20 hours, all reactions were acidified, extracted with CHCl3 and analyzed by HPLC as in Example 18. The results are given below:\n50 mg of KPG was weighed into Erlenmeyer flasks. […] Flasks were incubated at 35° C., 250 rpm for 23 hours. The reactions were stopped by acidification, extracted with CHCl3, and analyzed by HPLC as in Example 18. The additive is listed along with its percentage composition of glycerides of oleic acid.\nTo determine the problems associated with having oleic acid or oleate. esters in the reaction media, the following experiment was performed. […] Flasks were placed in a 35° C. incubator at 250 rpm, and the reactions were sampled by taking 200 ul aliquots at various time points. These aliquots were analyzed by HPLC (ODS-3 RAC column, CH3 OH: 10 mM (NH4)H2 PO4 (60:40) eluant, 4 ml/min, 254 nm detection) to determine the course of reaction. When approximately 40% acid was produced, the reactions were stopped by placing the flasks in the -70° C. freezer. Two extraction procedures were utilized to determine the best method of isolating S-Ketoprofen free of oleic acid. The first (listed as Extraction Procedure I in the following table) involved first making the solution basic (pH 10) with NaOH, then extracting with hexane, then CHCl3."}, "[1]": {"assay": "Conversion of ketoprofen esters in organic solvent/oleic acid media", "type": "biochemical", "description": "To optimize the organic solvent used in the presence of oleic acid a variety of organic solvents were used, along with a variety of ketoprofen esters. In this experiment, 50 mg of ketoprofen esters were weighed into flasks, along with 1 ml of oleic acid and 9 ml of an organic solvent. The flasks were capped and incubated at 35° C., 250 rpm, for 10-26 hours before stopping the reaction by first adding 4 ml CHCl3 to solubilize the substrates and products, then filtering through a 0.2 um Gelman Nylaflo filter. Samples were then diluted in methanol and analyzed by HPLC as in Example 18. The experiment was also performed using 200 ul of oleic acid and 10ml buffer, which was acidified, extracted with CHCl3 and analyzed by HPLC as above.\nOne ml of oleic acid was added, as was 9 ml of buffer (100 mM (NH4)H2 PO4, pH 5.5) or organic solvent. Flasks were placed into a 35° C. incubator and shaken at 250 rpm for 13 hours. Reaction was stopped by adding 5 ml CHCl3 to solubilize the organic material and filtering the solutions using 0.2 um Gelman Nylaflo membranes to remove the enzyme. Samples were analyzed on an ODS-3 RAC column using CH3 OH:10 mM (NH4)H2PO4 (60:40) as eluant, flow rate 4 ml/min, and detection at 254 nm. %ee was determined by the resolution of diastereomeric amides on the above HPLC system, as per Example 18."}, "[2]": {"conditions": "surfactant 2% of reaction volume, 200 ul DMF, enzyme alone = 100"}, "[3]": {"conditions": "200 ul DMF, b1067-b1069 18 hr, b1070-b1084 23 hr, amounts: 200 ul except tributyrin, dilinolein, trilinoein 100 ul, monostearin, distearin 25 ul, tristearin 28 ul, 0 = CSC-2 alone"}, "[4]": {"conditions": "18 hr with 100 ul (b930-b936), 23 hr with 200 ul (b937-b944), None = CSC-2 alone"}, "[5]": {"conditions": "additive 100 ul, 75 mg KPG, no DMF, 20 hours"}, "[6]": {"conditions": "additive 200 ul, 75 mg KPG, 20 hours"}, "[7]": {"conditions": "additive 500 ul, 75 mg KPG, 20 hours"}, "[8]": {"conditions": "solvent/buffer 1:1 two phase, 16 hour reactions"}, "[9]": {"conditions": "5 g KPG, 50 mg CSC-2, 5 grams additive"}}, "note": "“And” between values parts separate entries of the source, which are not always exact repeats. Equal entries are not always repeated."}
{"compound": "Tween 40", "values": [{"measurement": "Relative Rate", "setting": "CSC-2; [2]", "value": 29}]}
{"compound": "CCCCC/C=C\\C/C=C\\CCCCCCCC(=O)O", "note": "[linoleic acid]", "values": [{"measurement": "% Acid", "setting": "CSC-2; [3]", "value": 21, "unit": "%"}]}
{"compound": "CCCCCCCC/C=C\\CCCCCCCC(=O)OCC", "note": "[oleic acid ethyl ester]", "values": [{"measurement": "% Acid", "setting": "CSC-2; [4]", "value": 52, "unit": "%"}, {"measurement": "% ee S-acid", "setting": "CSC-2; None = CSC-2 alone", "value": 96, "unit": "%"}, {"measurement": "Rate", "setting": "CSC-2; as E158", "value": 4}]}
{"compound": "sorbitan sesquioleate [Arlacel 83]", "values": [{"measurement": "% Acid", "setting": "CSC-2; [5]", "value": 30, "unit": "%"}, {"measurement": "S-acid (% ee)", "setting": "CSC-2; additive 200 ul", "value": 99}, {"measurement": "% Acid", "setting": "CSC-2; [6]", "value": 30, "unit": "%"}, {"measurement": "% Acid", "setting": "CSC-2; [7]", "value": 29, "unit": "%"}, {"measurement": "Relative Rate", "setting": "CSC-2; [2]", "value": 172}]}
{"compound": "POE-23 lauryl ether [Brij 35]", "values": [{"measurement": "Relative Rate", "setting": "CSC-2; [2]", "value": 26}]}
{"compound": "CC(C)OC(C)C", "note": "[Isopropyl ether]", "values": [{"measurement": "EE of S-acid", "setting": "CSC-2; solvent/buffer 1:1 two phase, 26 hours", "value": 69, "unit": "%"}, {"measurement": "Relative Rate", "setting": "CSC-2; solvent/buffer 1:1 two phase, 26 hours, buffer = 100", "value": 53}]}
{"compound": "OCc1ccccc1", "note": "[Benzyl alcohol]", "values": [{"measurement": "Relative Rate", "setting": "CSC-2; [8]", "value": 0}]}
{"compound": "POE-10 oleyl ether [Brij 96]", "values": [{"measurement": "Relative Rate", "setting": "CSC-2; [2]", "value": 27}]}
{"compound": "Tween 20", "values": [{"measurement": "Relative Rate", "setting": "CSC-2; [2]", "value": 39}]}
{"compound": "CC(C(=O)OCC(O)CO)c1cccc(C(=O)c2ccccc2)c1", "note": "(stereo not shown) [Monoglyceride Ester, ketoprofen monoglyceride]", "values": [{"measurement": "% ee", "setting": "[1]; Buffer 10 ml, OA 200 ul", "value": 96, "unit": "%"}, {"measurement": "% Acid", "setting": "[1]; Buffer 10 ml, OA 200 ul, enzyme not named in Example 55", "value": 26, "unit": "%"}, {"measurement": "% Acid", "setting": "[1]; CHCl3 9 ml, OA 1 ml", "value": 0, "unit": "%"}, {"measurement": "% Acid", "setting": "[1]; Hexane 9 ml, OA 1 ml, 10-26 hours", "value": 47, "unit": "%"}, {"measurement": "% ee", "setting": "[1]; Hexane 9 ml, OA 1 ml, * stopped at 10 Hr", "value": 97, "unit": "%"}, {"measurement": "% Acid", "setting": "[1]; Isooctane 9 ml, OA 1 ml", "value": 31, "unit": "%"}, {"measurement": "% ee", "setting": "[1]; Isooctane 9 ml, OA 1 ml, * stopped at 10 Hr", "value": 96, "unit": "%"}, {"measurement": "% Acid", "setting": "[1]; Toluene 9 ml, OA 1 ml", "value": 0, "unit": "%"}]}
{"compound": "CCCCC/C=C\\C/C=C\\CCCCCCCC(=O)OCC", "note": "[Linoleic acid ethyl ester]", "values": [{"measurement": "% Acid", "setting": "CSC-2; [3]", "value": 26, "unit": "%"}]}
{"compound": "CCCCCCCCCCCCCCCCCC(=O)OCC(O)CO", "note": "(stereo not shown) [monostearin]", "values": [{"measurement": "% Acid", "setting": "CSC-2; [3]", "value": 31, "unit": "%"}]}
{"compound": "CCCCC/C=C\\C/C=C\\CCCCCCCC(=O)OCC(O)COC(=O)CCCCCCC/C=C\\C/C=C\\CCCCC", "note": "[dilinolein]", "values": [{"measurement": "% Acid", "setting": "CSC-2; [3]", "value": 20, "unit": "%"}]}
{"compound": "CCCCCCCC/C=C\\CCCCCCCC(=O)O", "note": "[oleic acid]", "values": [{"measurement": "Final % Acid", "setting": "CSC-2; [9]", "value": 39, "unit": "%"}, {"measurement": "Rate", "setting": "CSC-2; [9]", "value": 1.2, "unit": "µmol/h/mg"}, {"measurement": "% Acid", "setting": "CSC-2; [4]", "value": 47, "unit": "%"}, {"measurement": "% ee S-acid", "setting": "CSC-2; None = CSC-2 alone", "value": 96, "unit": "%"}, {"measurement": "Rate", "setting": "CSC-2; as E158", "value": 3}, {"measurement": "Isolated % ee (S-Acid)", "setting": "CSC-2", "value": 88, "unit": "%"}]}
{"compound": "CCOCC", "note": "[Ethyl ether]", "values": [{"measurement": "Relative Rate", "setting": "CSC-2; pH 5.5, 960 min", "value": 0}]}
{"compound": "Tween 85", "values": [{"measurement": "Relative Rate", "setting": "CSC-2; [2]", "value": 27}]}
{"compound": "POE-20 oleyl ether [Brij 99]", "values": [{"measurement": "Relative Rate", "setting": "CSC-2; [2]", "value": 15}]}
{"compound": "Span 85", "values": [{"measurement": "Final % Acid", "setting": "CSC-2; [9]", "value": 28.9, "unit": "%"}, {"measurement": "Rate", "setting": "CSC-2; [9]", "value": 0.87, "unit": "µmol/h/mg"}, {"measurement": "% Acid", "setting": "CSC-2; [5]", "value": 28, "unit": "%"}, {"measurement": "S-acid (% ee)", "setting": "CSC-2; additive 200 ul", "value": 96}, {"measurement": "% Acid", "setting": "CSC-2; [6]", "value": 33, "unit": "%"}, {"measurement": "% Acid", "setting": "CSC-2; [7]", "value": 34, "unit": "%"}, {"measurement": "% ee", "setting": "CSC-2; as E102", "value": "93% and 96% and 95% and 97%"}, {"measurement": "Isolated % ee (S-Acid)", "setting": "CSC-2", "value": 95.1, "unit": "%"}, {"measurement": "Relative Rate", "setting": "CSC-2; [2]", "value": 181}]}
{"compound": "Tween 65", "values": [{"measurement": "Relative Rate", "setting": "CSC-2; [2]", "value": 39}]}
{"compound": "ClC(Cl)Cl", "note": "[Chloroform]", "values": [{"measurement": "Relative Rate", "setting": "CSC-2; pH 5.5, 960 min", "value": 0}]}
{"compound": "POE-2 stearyl ether [Brij 72]", "values": [{"measurement": "Relative Rate", "setting": "CSC-2; [2]", "value": 106}]}
{"compound": "CCCCCCO", "note": "[n-Hexanol]", "values": [{"measurement": "Relative Rate", "setting": "CSC-2; [8]", "value": 0}]}
{"compound": "CCCCO", "note": "[n-Butanol]", "values": [{"measurement": "Relative Rate", "setting": "CSC-2; [8]", "value": 0}]}
{"compound": "CCCCC/C=C\\C/C=C\\CCCCCCCC(=O)OCC(COC(=O)CCCCCCC/C=C\\C/C=C\\CCCCC)OC(=O)CCCCCCC/C=C\\C/C=C\\CCCCC", "note": "[trilinoein]", "values": [{"measurement": "% Acid", "setting": "CSC-2; [3]", "value": 20, "unit": "%"}]}
{"compound": "POE-10 stearyl ether [Brij 76]", "values": [{"measurement": "Relative Rate", "setting": "CSC-2; [2]", "value": 18}]}
